Experimental data from patent publication US9365522B2, “Pyrazole amide derivative” (AMGEN INC., priority 2015, dated 2016).

Tests used:
human RORγ-LBD = biological target: T1, human RORγ-LBD (Homo sapiens, UniProt P51449); experiment: ROR gamma coactivator peptide recruitment Alphascreen assay (RORγ-LBD binding to GRIP1 coactivator peptide); format: biochemical; conditions: 5 nM human RORγ-LBD, 30 nM 7-β-hydroxycholesterol, 50 nM biotinylated GRIP1 coactivator peptide, overnight incubation at room temperature; read-out: result (pIC50, RORγ coactivator peptide recruitment Alphascreen assay) (converted)
T1 construct: made in house; host or cells: E. coli (BL-21)
T1 sequence (P51449 262-518): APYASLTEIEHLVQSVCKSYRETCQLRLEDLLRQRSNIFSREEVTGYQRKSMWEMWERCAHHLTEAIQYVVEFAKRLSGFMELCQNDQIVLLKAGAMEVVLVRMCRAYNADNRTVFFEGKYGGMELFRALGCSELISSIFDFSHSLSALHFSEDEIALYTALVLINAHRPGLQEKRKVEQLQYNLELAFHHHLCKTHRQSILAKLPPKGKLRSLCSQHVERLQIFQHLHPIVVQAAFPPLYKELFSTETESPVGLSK
Source text: Alphascreen™ is a bead-based amplified homogenous luminescent proximity assay that can be used for measuring the effect of compounds on protein-protein interactions. When biological interactions bring donor and acceptor beads into close proximity, reactive oxygen, generated upon laser excitation of the donor beads, initiates a luminescence/fluorescence cascade in the acceptor beads that leads to a highly amplified signal that can be measured as light in the 520-620 nm range. When the acceptor and donor beads are not in proximity, the reactive oxygen decays and only a very low background signal is generated.
An in vitro assay to assess inhibition of RORγ binding to the coactivator GRIP1 was established using Alphascreen™ technology. The interaction between nuclear receptors (NR) and coactivator proteins is a key step in signal transduction from the receptor to the transcriptional machinery and can be measured in vitro using only the ligand binding domain of the nuclear receptor and a peptide containing a coactivator protein LXXLL nuclear receptor binding motif
For the RORγ construct used in the coactivator recruitment assay, nucleotides corresponding to the ligand binding domain (LBD) of wild type human RORγ (amino acids 262-518 of Genbank Accession No. NM_005060.3) were cloned into the pET24 expression vector (Novagen), downstream of in-frame N-terminal 6×His and Flag tag sequences. Recombinant 6×His:Flag-tagged human RORγ-LBD protein was expressed in E. coli (BL-21) and purified by affinity chromatography on a nickel Sepharose column, followed by anion exchange chromatography.
A 4× assay mixture of 6×His:Flag-tagged human RORγ-LBD with the agonist ligand 7-β-hydroxycholesterol was prepared in assay buffer (50 mM HEPES pH 7.4, BSA 0.05%, 150 mM NaCl, 5 mM MgCl2, 1 mM DTT, 0.01% Tween-20). For control wells a 4× mixture of 6×His:Flag-tagged human ROR gamma LBD alone was also prepared.
A 4× stock of biotinylated coactivator peptide containing the LXXLL motif from GRIP1 (Biotin-[…]) was prepared in assay buffer.
A 4×detection mixture of nickel chelate Alphascreen™ acceptor beads (PerkinElmer) and streptavidin Alphascreen™ donor beads (PerkinElmer) was prepared in assay buffer.
Compounds to be tested were arranged in a pre-dose 384-well mother plate serially diluted 1 in 2 over 22 columns, in 100% DMSO, at 40× the final test concentration, from a high concentration of 4 mM. DMSO with no compound was placed in control columns. The compounds were robotically dispensed directly into assay plates containing assay buffer to a 4× final test concentration.
Following compound addition, the 6×His:Flag-tagged human RORγ-LBD plus 7-β-hydroxycholesterol assay mixture, biotinylated coactivator peptide and detection mixture were added. Final assay conditions were 5 nM 6×His:Flag-tagged human RORγ-LBD, 30 nM 7-β-hydroxycholesterol, 50 nM biotinylated coactivator peptide, 2.5 ug/ml nickel acceptor beads and 10 ug/ml streptavidin donor beads. The final concentration of DMSO in the assay was 2.5%.
After overnight incubation at room temperature plates were read on and Envision™ plate reader (PerkinElmer).
Data was plotted and pIC50 values were calculated using the Genedata Screener™ data analysis suite (Genedata).

[1] = biological target: T2, ligand binding domain of human ROR gamma (Homo sapiens, UniProt P51449); experiment: ROR gamma reporter gene assay (GAL4-RORγ LBD luciferase, Dual-Glo); format: cell-based; conditions: HEK293T cells transfected with pM-ROR gamma, 8 concentrations 3.5 nM to 10.5 μM, 24 h incubation; for IC50: read-out: result (pIC50, inhibition of RORγ transcriptional activity) (converted)
T2 construct: NM_001001523; expressed in transfected cells; host or cells: HEK293T
T2 sequence (P51449 247-497 isoform P51449-2): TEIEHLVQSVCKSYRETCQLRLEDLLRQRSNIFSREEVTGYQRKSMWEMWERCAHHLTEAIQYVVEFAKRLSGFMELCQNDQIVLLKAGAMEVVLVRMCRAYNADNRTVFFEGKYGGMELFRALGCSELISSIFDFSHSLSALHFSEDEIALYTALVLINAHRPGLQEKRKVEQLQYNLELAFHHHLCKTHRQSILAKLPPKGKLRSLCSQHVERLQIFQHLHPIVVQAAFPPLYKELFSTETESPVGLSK
In short: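 Inhibition of RORγ-driven transcription was measured in HEK293T cells expressing a GAL4 fusion of the human RORγ LBD (aa 247-497), with renilla luciferase as internal control. Cells in 10% charcoal-stripped serum received compound (3.5 nM–10.5 μM) for 24 h.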

IC50 [1] [pM]	Compound	further results
–	Cc1cc(Cl)c(C(=O)CN(CC2(C)COC2)C(=O)c2cnn([C@H]3CC[C@](C)(C(=O)O)CC3)c2C(F)(F)F)c(Cl)c1 [Example 676, trans-4-(4-((2-(2,6-dichloro-4-methylphenyl)-2-oxoethyl)((3-methyl-3-oxetanyl)methyl)carbamoyl)-5-(trifluoromethyl)-1H-pyrazol-1-yl)-1-methylcyclohexanecarboxylic acid]	IC50 (human RORγ-LBD): 0.0513 µM
–	Cc1cc(Cl)c(C(=O)CN(Cc2ccc(C(F)(F)F)cc2)C(=O)c2cnn([C@H]3CC[C@H](C(=O)O)CC3)c2C(F)(F)F)c(Cl)c1 [Example 528, trans-4-(4-((2-(2,6-dichloro-4-methylphenyl)-2-oxoethyl)(4-(trifluoromethyl)benzyl)carbamoyl)-5-(trifluoromethyl)-1H-pyrazol-1-yl)cyclohexanecarboxylic acid]	IC50 (human RORγ-LBD): 0.00417 µM
–	C[C@]1(C(=O)O)CC[C@H](n2ncc(C(=O)N3CC4(CCCC4)C[C@@H]3Cc3c(Cl)cncc3Cl)c2C(F)(F)F)CC1 [Example 582, trans-4-(4-(((3R)-3-((3,5-dichloro-4-pyridinyl)methyl)-2-azaspiro[4.4]non-2-yl)carbonyl)-5-(trifluoromethyl)-1H-pyrazol-1-yl)-1-methylcyclohexanecarboxylic acid]	IC50 (human RORγ-LBD): 0.0229 µM
14800	CCC(C)(C)CN(CC(=O)c1c(Cl)cc(F)cc1Cl)C(=O)c1cnn([C@H]2CC[C@](C)(C(=O)O)CC2)c1C(F)(F)F [Example 302, trans-4-(4-((2-(2,6-dichloro-4-fluorophenyl)-2-oxoethyl)-(2,2-dimethylbutyl)carbamoyl)-5-(trifluoromethyl)pyrazol-1-yl)-1-methylcyclohexane-1-carboxylic acid]	–
–	cis-3-(4-((2-(3,5-dichloropyridin-4-yl)-2- oxoethyl)(4-fluorobenzyl)carbamoyl)-5- (trifluoromethyl)-1H-pyrazol-1-yl)-1- fluorocyclohexanecarboxylic acid [Example 83]	result (pIC50, inhibition of RORγ transcriptional activity) [1]: 5.78
912000	CC(C)(C)[C@H]1C[C@@H](CN(CC(=O)c2c(Cl)cncc2Cl)C(=O)c2cnn([C@H]3CC[C@H](C(=O)O)CC3)c2C(F)(F)F)C1 [Example 126, trans-4-(4-((3-tert-butylcyclobutyl)methyl-(2-(3,5-dichloropyridin-4-yl)-2-oxoethyl)carbamoyl)-5-(trifluoromethyl)pyrazol-1-yl)cyclohexane-1-carboxylic acid]	–
162000	CC1(C)CC[C@H](N(CC(=O)c2c(Cl)cncc2Cl)C(=O)c2cnn([C@H]3CC[C@H](C(=O)O)CC3)c2C(F)(F)F)C1 [Example 184, trans-4-(4-((2-(3,5-dichloropyridin-4-yl)-2-oxoethyl)-((1S)-3,3-dimethylcyclopentyl)carbamoyl)-5-(trifluoromethyl)pyrazol-1-yl)cyclohexane-1-carboxylic acid]	–
2.09e+06	O=C(CN(CC1CCOCC1)C(=O)c1cnn([C@H]2CC[C@H](C(=O)O)CC2)c1C(F)(F)F)c1c(Cl)cncc1Cl [Example 71, trans-4-(4-((2-(3,5-dichloropyridin-4-yl)-2-oxoethyl)((tetrahydro-2H-pyran-4-yl)methyl)carbamoyl)-5-(trifluoromethyl)-1H-pyrazol-1-yl)cyclohexanecarboxylic acid]	–
8910	O=C(CN(Cc1cc(F)cc(F)c1)C(=O)c1cnn([C@H]2CC[C@H](C(=O)O)CC2)c1C(F)(F)F)c1c(Cl)cc(F)cc1Cl [Example 55, trans-4-(4-((2-(2,6-dichloro-4-fluorophenyl)-2-oxoethyl)(3,5-difluorobenzyl)carbamoyl)-5-(trifluoromethyl)-1H-pyrazol-1-yl)cyclohexanecarboxylic acid]	–
24000	O=C(CN(Cc1ccc(F)cc1)C(=O)c1cnn([C@H]2CC[C@H](C(=O)O)CC2)c1C(F)(F)F)c1c(Cl)cncc1Cl [Example 1, trans-4-(4-((2-(3,5-dichloropyridin-4-yl)-2-oxoethyl)(4-fluorobenzyl)carbamoyl)-5-(trifluoromethyl)-1H-pyrazol-1-yl)cyclohexanecarboxylic acid]	–
7940	C[C@]1(C(=O)O)CC[C@H](n2ncc(C(=O)N(CC(=O)c3c(Cl)cc(F)cc3Cl)CC3CC4(CC4)C3)c2C(F)(F)F)CC1 [Example 202, trans-4-(4-((2-(2,6-dichloro-4-fluorophenyl)-2-oxoethyl)-(spiro[2.3]hexan-5-ylmethyl)carbamoyl)-5-(trifluoromethyl)pyrazol-1-yl)-1-methylcyclohexane-1-carboxylic acid]	–
11700	CC1(C)[C@@H]2C[C@H](N(CC(=O)c3c(Cl)cccc3Cl)C(=O)c3cnn([C@H]4CC[C@](C)(C(=O)O)CC4)c3C(F)(F)F)C[C@@H]21 [Example 278, trans-4-(4-((2-(2,6-dichlorophenyl)-2-oxoethyl)((1R,3r,5S)-6,6-dimethylbicyclo[3.1.0]hexan-3-yl)carbamoyl)-5-(trifluoromethyl)-1H-pyrazol-1-yl)-1-methylcyclohexanecarboxylic acid]	–
33900	O=C(CN(Cc1cccc(F)c1F)C(=O)c1cnn([C@H]2CC[C@H](C(=O)O)CC2)c1C(F)(F)F)c1c(Cl)cncc1Cl [Example 43, trans-4-(4-((2-(3,5-dichloropyridin-4-yl)-2-oxoethyl)(2,3-difluorobenzyl)carbamoyl)-5-(trifluoromethyl)-1H-pyrazol-1-yl)cyclohexanecarboxylic acid]	–
79400	Cc1cncc(Cl)c1C(=O)CN(CC(C)(C)C)C(=O)c1cnn([C@H]2CC[C@](C)(C(=O)O)CC2)c1C(F)(F)F [Example 379, trans-4-(4-((2-(3-chloro-5-methylpyridin-4-yl)-2-oxoethyl)-(2,2-dimethylpropyl)carbamoyl)-5-(trifluoromethyl)pyrazol-1-yl)-1-methylcyclohexane-1-carboxylic acid]	–
40700	CC1(C)CCC(N(CC(=O)c2c(Cl)cncc2Cl)C(=O)c2cnn([C@H]3CC[C@H](C(=O)O)CC3)c2C(F)(F)F)CC1 [Example 169, trans-4-(4-((2-(3,5-dichloropyridin-4-yl)-2-oxoethyl)-(4,4-dimethylcyclohexyl)carbamoyl)-5-(trifluoromethyl)pyrazol-1-yl)cyclohexane-1-carboxylic acid]	–
33100	CC(C)(C)OCCN(CC(=O)c1c(Cl)cc(Cl)cc1Cl)C(=O)c1cnn([C@H]2CC[C@](C)(C(=O)O)CC2)c1C(F)(F)F [Example 293, trans-1-methyl-4-(4-(2-((2-methylpropan-2-yl)oxy)ethyl-(2-oxo-2-(2,4,6-trichlorophenyl)ethyl)carbamoyl)-5-(trifluoromethyl)pyrazol-1-yl)cyclohexane-1-carboxylic acid]	–
